From US12404232B2, “Compounds and compositions for intracellular delivery of therapeutic agents” (ModernaTX, Inc., priority 2015, dated 2025) come the findings set out here.

For data set [1], the system named is mice. In words: Luc expression (total flux) after intramuscular administration. It is filed as in vivo. The conditions noted are these: 6 hours after intramuscular administration, Luc mRNA (Table 5B).
The subject of data set [2] is mice. In words: Luc expression in liver, lung, spleen and femur after intravenous administration to mice. It is filed as in vivo. The conditions noted are these: Luc mRNA, i.v. to mice, 0.5 mpk, 6 hours. How it is done:
The efficacy of the nanoparticle compositions presented in Table 1A was further evaluated by measuring the expression of modified luciferase in the liver, lung, spleen, and femur upon administration of a given composition. Formulations were administered intravenously to mice (n=3) at a dosage of 0.5 mpk and bioluminescence measured after 6 hours. The standard MC3 formulation and a PBS control were also tested. […] Flux in the liver was lowest for compositions including Compounds 58, 59, 137, and 141. Flux in the spleen was highest for compositions including Compounds 4, 7, 33, 34, 48, 53, 108, 129, 130, and 148, and lowest for compositions including Compounds 9, 59, 124, and 141.

For data set [3], the system named is mice. In words: Luc expression (bioluminescence, total flux) after intravenous administration to mice. It is filed as in vivo. The method, boiled down:
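Whole-body bioluminescence was read at 3, 6 and 24 h after a single IV 0.5 mg/kg dose of Luc mRNA nanoparticles in mice, six per group. Total flux (AUC) is reported relative to the MC3 benchmark.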

In a further data set the test system is non-human primates. In words: Tolerability in non-human primates (clinical chemistry, hematology, observations). It is filed as in vivo, Cynomolgus monkeys. How it is done:
The tolerability and efficacy of nanoparticle compositions to non-human primates was also investigated using a sample formulation including Compound 18. The formulation was prepared according to the standard MC3 formulation described above and included an hEPO mRNA. Primates were administered a single dose of 0.05 (Group 1), 0.3 (Group 2), or 1.0 (Group 3) mpk via intravenous infusion for 60 minutes. Three primates were administered each dose. Expression of hEPO was measured prior to dosing and at 2, 6, 24, 48, and 96 hours post-treatment (Table 26). Table 28 includes levels of indicators of complement activation, while Table 29 includes cytokine induction data.
In general, lower doses were better tolerated. High doses induced body temperature elevation and hunched posture, which is similar to the behavior observed for primates administered higher doses of MC3 formulations.

In the case of `CCCCCC=CCC=CCCCCCCCCC(CCCCCCCCC=CCC=CCCCCC)OC(=O)CCCN(C)C` (stereo not shown) [MC3, heptatriaconta-6,9,28,31-tetraen-19-yl 4-(dimethylamino)butanoate, reference compound], the “Total flux (p/s) 0.01 mpk Dose” value in the data set on mice [1] was 3.23E+07 p/s. In addition, in the data set on mice [2], the “Total Flux Femur” value is 2.56E+06, the “Total Flux Liver” value came to 2.57E+09, the “Total Flux Lung” value is on record as 1.27E+07 and the “Total Flux Spleen” value is given as 2.85E+07. Moreover, the “AUC (p/s*h)” value in the data set with mice [3] (Luc total flux (Table 3D)) is listed as 1.909E+011 p/s*h. In addition, in the data set on mice [3] (i.v. administration, 6 h, geometric mean), the “6 h Lipid/MC3 G.M. Luc Expression” value is 1. Moreover, in the data set on mice [3] (i.v. administration, total Luc flux (Table 3C)), the “AUC (h*p/s)” value stood at 8.24E+10 h*p/s.
On to `CCCCCCCCCOC(=O)CCCCCCCN(CCO)CCCCCCCC(=O)OC(CCCCCCCC)CCCCCCCC` [Compound 18, Heptadecan-9-yl 8-((2-hydroxyethyl)(8-(nonyloxy)-8-oxooctyl)amino)octanoate], for which, in the data set with non-human primates (non-human primates, 0.05, 0.3 or 1.0 mpk), the “White blood cell counts” value is “slightly elevated in animals in the high dose group”. Also, the “reticulocyte counts on Day 5” value in the data set with non-human primates (non-human primates, all groups) is recorded as “marked increase”.
